Data from US20230022157A1 (Achillion Pharmaceuticals, Inc., priority 2018, published 2023).

Molecular target: T1, Human Factor D (Homo sapiens, UniProt P00746)
T1 construct: purified from human serum; purchased Complement Technology, Inc; host or cells: human serum (natural protein, not recombinant)
Experiment: Human Factor D Assay
Format: biochemical
Details: Human Factor D 80 nM, substrate Z-L-Lys-SBzl, assay of Example 3; read-out: IC50 (Stars)
Method in brief: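 Serum-purified human factor D (80 nM final) preincubated 5 min at room temperature with test compound in 50 mM Tris, 1M NaCl, pH 7.5. Z-L-Lys-SBzl substrate and DTNB then added, each at 100 μM final. IC50 from nonlinear regression of reaction rate against compound concentration.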

T1 sequence (P00746 26-253): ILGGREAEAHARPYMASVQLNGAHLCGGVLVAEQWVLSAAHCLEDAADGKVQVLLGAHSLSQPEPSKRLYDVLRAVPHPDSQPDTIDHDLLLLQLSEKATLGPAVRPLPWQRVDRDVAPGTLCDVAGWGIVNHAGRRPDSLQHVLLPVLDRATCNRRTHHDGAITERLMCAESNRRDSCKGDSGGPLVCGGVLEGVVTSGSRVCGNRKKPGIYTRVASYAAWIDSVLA

Row | Structure (SMILES) | IC50 [nM]
1 | CC(=O)c1nn(CC(=O)N2[C@H](C(=O)N[C@H](C)CC(C)C)C[C@@]3(C)C[C@@H]23)c2ccc(-c3cnc(C)nc3)cc12 [Compound 18, (1R,3S,5R)-2-(2-(3-Acetyl-5-(2-methylpyrimidin-5-yl)-1H-indazol-1-yl)acetyl)-5-methyl-N—((R)-4-methylpentan-2-yl)-2-azabicyclo[3.1.0]hexane-3-carboxamide] | < 1000
2 | CC(=O)c1nn(CC(=O)N2[C@H](C(=O)Nc3cccc(C(F)(F)F)c3F)C[C@@]3(C)C[C@@H]23)c2ccc(-c3cnc4cc(C)nn4c3)cc12 [Compound 25, (1R,3S,5R)-2-(2-(3-Acetyl-5-(2-methylpyrazolol[1,5-A]pyrimidin-6-yl)-1H-indazol-1-yl)acetyl)-N-(2-fluoro-3-(trifluoromethyl)phenyl)-5-methyl-2-azabicyclo[3.1.0]hexane-3-carboxamide] | < 1000
3 | CC(=O)c1nn(CC(=O)N2[C@H](C(=O)Nc3cccc(C(F)(F)F)c3F)C[C@@]3(C)C[C@@H]23)c2cnc(-c3cnc(C)nc3)cc12 [Compound 23, (1R,3S,5R)-2-(2-(3-Acetyl-5-(2-methylpyrimidin-5-yl)-1H-pyrazolo[3,4-C]pyridine-1-yl)acetly)-N-(2-fluoro-3-(trifluoromethyl)phenyl)-5-methyl-2-azabicyclo[3.1.0]hexane-3-carboxamide] | < 1000
4 | CC(=O)c1nn(CC(=O)N2C[C@H](F)C[C@H]2C(=O)Oc2cccc(Br)n2)c2ccc(-c3cnc(C)nc3)cc12 [Compound 37, (2S,4R)-6-Bromopyridin-2-yl 1-(2-(3-acetyl-5-(2-methylpyrimidin-5-yl)-1H-indazol-1-yl)acetyl)-4-fluoropyrrolidine-2-carboxylate] | 1000 to 10000
5 | CC(=O)c1nn(CC(=O)N2[C@H](C(=O)NCCc3cccnc3)C[C@@]3(C)C[C@@H]23)c2c(C)cc(-c3cnc(C)nc3)cc12 [Compound 7, (1R,3S,5R)-2-(2-(3-Acetyl-7-methyl-5-(2-methylpyrimidin-5-yl)-1H-indazol-1-yl)acetyl)-5-methyl-N-(2-(pyridin-3-yl)ethyl)-2-azabicyclo[3.1.0]hexane-3-carboxamide] | < 1000

Same assay, conditions: Human Factor D 80 nM, substrate Z-L-Lys-SBzl; Table 2; read-out: IC50 (Stars)

Row | Structure (SMILES) | IC50 [nM]
6 | CC(=O)c1nn(CC(=S)N2C[C@H](F)C[C@H]2C(=O)Nc2cccc(Br)n2)c2ccc(-c3cnc(C)nc3)cc12 [Compound 110, 1-{2-[3-Acetyl-5-(2-methyl-pyrimidin-5-yl)-indazol-1-yl]-thioacetyl}-4-fluoro-pyrrolidine-2-carboxylic acid (6-bromo-pyridin-2-yl)-amide] | 1000 to 10000
7 | CC(=O)c1cn(CC(=O)N2C[C@H]3C[C@H]3[C@H]2C(=O)Nc2nc(Br)c(F)cc2C)c2c(C3CC3)cc(-c3cnc(C)nc3)cc12 [Compound 163] | < 1000
8 | CC(=O)c1cn(CC(=O)N2[C@H](C(=O)Nc3nc(Br)c(F)cc3C)C[C@@]3(C)C[C@@H]23)c2c(C3CC3)cc(-c3cnc(C)nc3)cc12 [Compound 162] | < 1000
9 | CC(=O)c1nn(CC(=O)N2[C@H](C(=O)Nc3nc(Br)c(F)cc3C)C[C@@]3(C)C[C@@H]23)c2c(C)cc(-c3ccc(CO)nc3)cc12 [Compound 118, (1R,3S,5R)-2-(2-(3-acetyl-5-(6-(hydroxymethyl)pyridin-3-yl)-7-methyl-1H-indazol-1-yl)acetyl)-N-(6-bromo-5-fluoro-3-methylpyridin-2-yl)-5-methyl-2-azabicyclo[3.1.0]hexane-3-carboxamide] | < 1000
10 | COC(C)(C)CNC(=O)[C@@H]1C[C@@]2(C)C[C@H]2N1C(=O)Cn1nc(C(C)=O)c2cc(-c3cnc(C)nc3)cc(C)c21 [Compound 87, (1R,3S,5R)-2-{2-[3-acetyl-7-methyl-5-(2-methylpyrimidin-5-yl)indazol-1-yl]acetyl}-N-(2-methoxy-2-methylpropyl)-5-methyl-2-azabicyclo[3.1.0]hexane-3-carboxamide] | < 1000
11 | CC(=O)c1nn(CC(=O)N2[C@H](C(=O)Nc3nc(Br)c(F)cc3C)C[C@@]3(C)C[C@@H]23)c2c(C)cc(-c3cnc(C(C)O)cn3)cc12 (stereo partly drawn) [Compound 204, (1R,3S,5R)-2-(2-(3-acetyl-5-(5-(1-hydroxyethyl)pyrazin-2-yl)-7-methyl-1H-indazol-1-yl)acetyl)-N-(6-bromo-5-fluoro-3-methylpyridin-2-yl)-5-methyl-2-azabicyclo[3.1.0]hexane-3-carboxamide] | < 1000

Second part, the compound after the results:

Row | IC50 [nM] | Structure (SMILES)
12 | < 1000 | CC(=O)c1cn(CC(=O)N2[C@H](C(=O)Nc3nc(C(F)(F)F)ccc3C)C[C@@]3(C)C[C@@H]23)c2c(CO)nc(-c3cnc(C)nc3)cc12 [Compound 207, (1R,3S,5R)-2-(2-(3-acetyl-7-(hydroxymethyl)-5-(2-methylpyrimidin-5-yl)-1H-pyrrolo[2,3-c]pyridin-1-yl)acetyl)-5-methyl-N-(3-methyl-6-(trifluoromethyl)pyridin-2-yl)-2-azabicyclo[3.1.0]hexane-3-carboxamide]
13 | < 1000 | Cc1cc(F)c(Br)nc1NC(=O)[C@@H]1C[C@@]2(C)C[C@H]2N1C(=O)Cn1nc(C(N)=O)c2cc(-c3cnc(CO)nc3)nc(C)c21 [Compound 167, (1R,3S,5R)—N-(6-bromo-5-fluoro-3-methylpyridin-2-yl)-2-(2-{3-carbamoyl-5-[2-(hydroxymethyl)pyrimidin-5-yl]-7-methylpyrazolo[3,4-c]pyridin-1-yl}acetyl)-5-methyl-2-azabicyclo[3.1.0]hexane-3-carboxamide]
14 | < 1000 | CC(=O)c1cn(CC(=O)N2[C@H](C(=O)Nc3nc(C(F)(F)F)ccc3C)C[C@@]3(C)C[C@@H]23)c2c(C)cc(-c3cnc(CF)nc3)cc12 [Compound 220, (1R,3S,5R)-2-(2-(3-acetyl-5-(2-(fluoromethyl)pyrimidin-5-yl)-7-methyl-1H-indol-1-yl)acetyl)-5-methyl-N-(3-methyl-6-(trifluoromethyl)pyridin-2-yl)-2-azabicyclo[3.1.0]hexane-3-carboxamide]
15 | < 1000 | CC(=O)c1nn(CC(=O)N2[C@H](C(=O)Nc3nc(Br)ccc3C)C[C@@]3(C)C[C@@H]23)c2cc(CF)c(Nc3cnc(C)nc3)cc12 [Compound 185, (1R,3S,5R)-2-(2-(3-acetyl-6-(fluoromethyl)-5-((2-methylpyrimidin-5-yl)amino)-1H-indazol-1-yl)acetyl)-N-(6-bromo-3-methylpyridin-2-yl)-5-methyl-2-azabicyclo[3.1.0]hexane-3-carboxamide]
16 | < 1000 | COCc1cc(-c2cnc(C)nc2)cc2c(C(C)=O)cn(CC(=O)N3[C@H](C(=O)Nc4nc(C(F)(F)F)ccc4C)C[C@@]4(C)C[C@@H]34)c12 [Compound 238, (1R,3S,5R)-2-(2-(3-acetyl-7-(methoxymethyl)5-(2-methylpyrimidin-5-yl)-1H-indol-1-yl)acetyl)-5-methyl-N-(3-methyl-6-(trifluoromethyl)pyridin-2-yl)-2-azabicyclo[3.1.0]hexane-3-carboxamide]
17 | < 1000 | CC(=O)c1nn(CC(=O)N2C[C@H](F)C[C@H]2C(=O)Nc2cccc(Br)n2)c2c(C)cc(-c3cnc(C(C)O)nc3)cc12 (stereo partly drawn) [Compound 179, (2S,4R)-1-(2-(3-acetyl-5-(2-(1-hydroxyethyl)pyrimidin-5-yl)-7-methyl-1H-indazol-1-yl)acetyl)-N-(6-bromopyridin-2-yl)-4-fluoropyrrolidine-2-carboxamide]
18 | < 1000 | CC(=O)c1cn(CC(=O)N2[C@H](C(=O)Nc3cnc(C)c(Br)n3)C[C@@]3(C)C[C@@H]23)c2c(C)cc(-c3cnc(C)nc3)cc12 [Compound 160, (1R,3S,5R)-2-(2-(3-acetyl-7-methyl-5-(2-methylpyrimidin-5-yl)-1H-indol-1-yl)acetyl)-N-(6-bromo-5-methylpyrazin-2-yl)-5-methyl-2-azabicyclo[3.1.0]hexane-3-carboxamide]
19 | < 1000 | CC(=O)c1cn(CC(=O)N2[C@H](C(=O)Nc3nc(C(F)(F)F)ccc3C)C[C@@]3(C)C[C@@H]23)c2cc(F)c(-c3cnc4cc(C)nn4c3)cc12 [Compound 230, (1R,3S,5R)-2-(2-(3-acetyl-6-fluoro-5-(2-methylpyrazolo[1,5-a]pyrimidin-6-yl)-1H-indol-1-yl)acetyl)-5-methyl-N-(3-methyl-6-(trifluoromethyl)pyridin-2-yl)-2-azabicyclo[3.1.0]hexane-3-carboxamide]
20 | < 1000 | CC(=O)c1cn(CC(=O)N2[C@H](C(=O)Nc3nc(Br)ccc3C)C[C@@]3(C)C[C@@H]23)c2c(C)cc(-c3cnc(C(C)F)nc3)cc12 (stereo partly drawn) [Compound 216, (1R,3S,5R)-2-(2-(3-acetyl-5-(2-(1-fluoroethyl)pyrimidin-5-yl)-7-methyl-1H-indol-1-yl)acetyl)-N-(6-bromo-3-methylpyridin-2-yl)-5-methyl-2-azabicyclo[3.1.0]hexane-3-carboxamide]
21 | < 1000 | CC(=O)c1nn(CC(=O)N2[C@H](C(=O)Nc3nc(C(F)(F)F)ccc3C)C[C@@]3(C)C[C@@H]23)c2c(C)cc(-c3cnc(C)nc3)cc12 [Compound 236, (1R,3S,5R)-2-(2-(3-acetyl-7-methyl-5-(2-methylpyrimidin-5-yl)-1H-indazol-1-yl)acetyl)-5-methyl-N-(3-methyl-6-(trifluoromethyl)pyridin-2-yl)-2-azabicyclo[3.1.0]hexane-3-carboxamide]
22 | < 1000 | CC(=O)c1cn(CC(=O)N2[C@H](C(=O)Nc3nc(Br)c(F)cc3C)C[C@@]3(C)C[C@@H]23)c2c(C)cc(-c3cnc(C)nc3)cc12 [Compound 144, (1R,3S,5R)-2-(2-(3-acetyl-7-methyl-5-(2-methylpyrimidin-5-yl)-1H-indol-1-yl)acetyl)-N-(6-bromo-5-fluoro-3-methylpyridin-2-yl)-5-methyl-2-azabicyclo[3.1.0]hexane-3-carboxamide]
23 | 1000 to 10000 | CC(=O)c1nn(CC(=O)N2[C@H](C(=O)N[C@H]3CCCCC34OCCO4)C[C@@]3(C)C[C@@H]23)c2c(C)cc(-c3cnc(C)nc3)cc12 (single isomer, unassigned) [Compound 135]
